Laboratory results from patent publication US11135214B2, “Methods for enhancing the bio availability and exposure of a voltage-gated potassium channel opener” (priority 2018, dated 2021).
“And” between values parts separate entries of the source, which are not always exact repeats. Identical values can stand only once. Like-named read-outs stand apart in the source and are kept apart here.

How the values were obtained:
[1] = TMS crossover study, pharmacokinetic analysis; assay type: in vivo, human; settings: male, human, plasma, oral, 20 mg; for half-life: 24 h sampling
Experimental: A randomized, double-blind, placebo-controlled, transcranial magnetic stimulation (TMS) crossover study investigated the safety, tolerability, pharmacokinetics (PK), and pharmacodynamics (PD) of single doses of Compound A in healthy right-handed male subjects.
Twenty healthy right-handed male subjects were enrolled and randomized in a blinded fashion to receive a single oral dose of 20 mg Compound A or placebo (1:1 randomization ratio) on Day 1, then were crossed over to receive a single dose of the other treatment on Day 7.
Subjects were screened within 27 days prior to entering the study on Day 1. For Period 1, subjects were admitted to the study unit and dosed on Day 1, and discharged on Day 2. For Period 2, following a washout of 6 days, the same subjects were again admitted to the study unit and dosed on Day 7, and discharged on Day 8. All subjects returned to the clinical unit for an outpatient visit on Day 14, and received a follow-up telephone call on Day 37.
Subjects were dosed in a fed state, but the timing of dosing relative to meals was changed during the study, and varied between a high fat or standard meal eaten either 2 h or 30 minutes prior to dosing, and a high fat or standard meal eaten 1 h or 2.5 h after dosing.
The PK parameters for this study were summarized in two ways. Firstly, PK parameters were calculated where possible using the PK samples collected during each 24 h sampling period for Period 1 and Period 2 separately. Secondly, PK parameters were determined using samples beyond the 24 h sampling period (i.e., from Day 7/8 and/or Day 14). For subjects who received Compound A in the first period, PK samples taken prior to placebo treatment provided additional PK timepoints at >24 h. For subjects who received Compound A in the second period, there was no >24 h PK timepoint until a Day 14 PK sample was added. […] The full PK profile data set consists of the 16 subjects for whom PK samples were taken at >24 h post-dose. For discussion of the PK parameters below, the full PK profile data set was generally used, because it allowed more accurate estimation of PK parameters.
Initially, subjects were dosed 2 hours after a high fat meal with a relatively high fat lunch provided 1 hour after dosing. After blinded review of the PK profiles in the initial 8 subjects, the fat content of the lunch was reduced in an attempt to reduce the time to Tmax, so that the Cmax would fall within the timeframe of TMS measurements. In addition, the timing of the meal relative to dose was changed from 2 hours prior, to 30 minutes prior to dose and subsequently the fat content of the breakfast was reduced. All these changes were made in attempts to provide higher plasma levels during the TMS assessment periods. The timing and type of meal for each subject is specified in Table 13. […] As such the PK data is presented without categorization according to meal content, or relative timing of the meal.

[2] = tested on: corticospinal excitability; assay: TMS crossover study, TMS-EMG resting motor threshold (RMT); assay type: in vivo, human; settings: for Resting Motor Threshold, post-dose change from baseline: individual subjects; for Resting Motor Threshold, post-dose change from baseline (Mean): mean of subjects
Experimental: PD assessments included resting state electroencephalogram (RS-EEG); TMS-EMG measurements including resting motor threshold (RMT), active motor threshold (AMT), and short-interval intracortical inhibition (SICI); and TMS-EEG measurements. All 20 subjects underwent TMS-EMG and TMS-EEG sessions prior to dosing on Days 1 and 7 and at 2 and 4 h after dosing. […] For the 6 h timepoint, RMT was performed for 16 subjects, and AMT, EEG resting state, and TMS-EEG was performed for 8 subjects. RMT and AMT values are reported as percentages of maximum stimulator output (% MSO). Drug-induced modulation of TMS-EMG parameters were evaluated over the 3 timepoints (2, 4, and 6 h) and for the timepoint with the highest drug exposure. Individual and averaged RMT values at baseline and change each timepoint for Compound A and placebo for all 20 subjects are presented in Table 18. […] In addition, RMT could not be registered for Subject 912 at 2 hours after Compound A intake.

[3] = single 20 mg dose, 2 h post-dose
[4] = single 20 mg dose, 4 h post-dose
[5] = single 20 mg dose, 6 h post-dose

For `Cc1cc(N2CCc3cc(F)ccc3C2)cc(C)c1NC(=O)CC(C)(C)C` [Compound A, N-[4-(6-fluoro-3,4-dihydro-1H-isoquinolin-2-yl)-2,6-dimethylphenyl]-3,3-dimethylbutanamide], the AUC(0-t) ([1]; Full PK Profile Data Set (N=16), Range, read-out: AUClast) was 1580 ± 4400 ng·h/mL, the CL/F ([1]; Full PK Profile Data Set (N=16), Range, read-out: CL/F normalized (converted)) was 0.672 mL/min/kg and the Vd/F ([1]; Full PK Profile Data Set (N=16), Range, read-out: Vz/F normalized) was 6.4 ± 33.8 L/kg. It also gave a half-life ([1]; Overall (N=20), Mean ± SD) of 11.1 ± 2.6 h, a half-life ([1]; Overall (N=20), Range) of 8.01 to 14.9 h and an AUC(0-t) ([1]; Overall (N=20), Mean ± SD, read-out: AUC0-24) of 687 ± 160 ng·h/mL. It also gave a Cmax ([1]; Overall (N=20), Mean ± SD, read-out: Cmax) of 59.2 ± 13.8 ng/mL, a Tmax ([1]; Overall (N=20), Median) of 7.8 h and a Tmax ([1]; Overall (N=20), Range) of 1.9 to 12 h. It also gave an AUC(0-t) ([1]; Overall (N=20), Range, read-out: AUC0-24) of 358 to 951 ng·h/mL, a Cmax ([1]; Overall (N=20), Range, read-out: Cmax) of 29.9 to 79.4 ng/mL and a half-life ([1]; Period 1 (N=10), Mean ± SD) of 11.4 ± 2.6 h. The half-life ([1]; Period 1 (N=10), Range) was 8.46 to 14.9 h, the AUC(0-t) ([1]; Period 1 (N=10), Mean ± SD, read-out: AUC0-24) was 693 ± 184 ng·h/mL and the Cmax ([1]; Period 1 (N=10), Mean ± SD, read-out: Cmax) was 60.2 ± 17.3 ng/mL. For the same molecule, the Tmax ([1]; Period 1 (N=10), Median) was 6.94 h, the Tmax ([1]; Period 1 (N=10), Range) was 1.92 to 12 h and the AUC(0-t) ([1]; Period 1 (N=10), Range, read-out: AUC0-24) was 383 to 951 ng·h/mL. The Cmax ([1]; Period 1 (N=10), Range, read-out: Cmax) was 29.9 to 77.1 ng/mL, the half-life ([1]; Period 2 (N=10), Mean ± SD) was 10.6 ± 2.9 h and the half-life ([1]; Period 2 (N=10), Range) was 8.01 to 14.3 h. For the same molecule, the AUC(0-t) ([1]; Period 2 (N=10), Mean ± SD, read-out: AUC0-24) was 681 ± 142 ng·h/mL, the Cmax ([1]; Period 2 (N=10), Mean ± SD, read-out: Cmax) was 58.3 ± 9.94 ng/mL and the Tmax ([1]; Period 2 (N=10), Median) was 7.83 h. It also gave a Tmax ([1]; Period 2 (N=10), Range) of 1.92 to 8.15 h, an AUC(0-t) ([1]; Period 2 (N=10), Range, read-out: AUC0-24) of 358 to 869 ng·h/mL and a Cmax ([1]; Period 2 (N=10), Range, read-out: Cmax) of 46.2 to 79.4 ng/mL. The concentration at 2 h ([1]; Placebo Treatment Period (carry-over), 2 h, Mean, read-out: Compound A Plasma Concentration) was 5.46 ng/mL, the concentration at 4 h ([1]; Placebo Treatment Period (carry-over), 4 h, Mean, read-out: Compound A Plasma Concentration) was 5.17 ng/mL and the concentration at 6 h ([1]; Placebo Treatment Period (carry-over), 6 h, Mean, read-out: Compound A Plasma Concentration) was 5.28 ng/mL. The CL/F ([1]; equivalent of 97.5 mL/h/kg, read-out: Body weight normalized clearance (CL/F)) was ~1.6 mL/min/kg, the Cmax ([1]; subjects who received placebo in Period 2, mean, read-out: Cmax of Compound A in placebo treatment period) was 5.84 ng/mL and the Cmax ([1]; subjects who received placebo in Period 2, range, read-out: Cmax of Compound A in placebo treatment period) was 3.34 to 9.61 ng/mL. The RMT ([2]; 20 mg single dose) was “significant increase in RMT”, the “RMT increase, mean±SEM” value ([2]; 20 mg, 6 h) was 4.9±0.7% and the “effect on RMT” value ([2]; 20 mg, 6 h post-dose) was > 4%. For the same molecule, the “Resting Motor Threshold, post-dose change from baseline” value [2, 3] was 3 % MSO (4×) and 1 % MSO (4×) and 0 % MSO (7×) and 2 % MSO (3×) and 6 % MSO, the “Resting Motor Threshold, post-dose change from baseline” value [2, 4] was 7 % MSO (2×) and 1 % MSO (4×) and 0 % MSO (4×) and 6 % MSO (2×) and 3 % MSO (3×) and 5 % MSO and 10 % MSO and 2 % MSO (2×) and 4 % MSO and the “Resting Motor Threshold, post-dose change from baseline” value [2, 5] was 8 % MSO (2×) and 4 % MSO (3×) and 6 % MSO (2×) and 10 % MSO and 1 % MSO (2×) and 0 % MSO and 7 % MSO (3×) and 3 % MSO (2×). The “Resting Motor Threshold, post-dose change from baseline (Mean)” value [2, 3] was 1.5 % MSO, the “Resting Motor Threshold, post-dose change from baseline (Mean)” value [2, 4] was 3.1 % MSO and the “Resting Motor Threshold, post-dose change from baseline (Mean)” value [2, 5] was 4.9 % MSO. The “RMT compared to time matched placebo” value ([2]; single 20 mg dose, 2, 4, and 6 h post-dose) was “increased RMT from baseline”.
